Experiment: excess molar enthalpy (molar enthalpy of mixing); xn = mol fraction of the nth substance listed
Conditions: Liquid, Flow calorimetry

CN(C)CCO [2-(N,N-dimethylamino)ethanol] + CCO
excess molar enthalpy [kcal/mol]
Conditions | 298.2 K | 313.2 K | 328.2 K
100 kPa, x1 = 0.0717 | -0.035 | -0.0369 | –
100 kPa, x1 = 0.1392 | -0.0579 | -0.0621 | –
100 kPa, x1 = 0.2028 | – | -0.0786 | –
100 kPa, x1 = 0.2034 | – | – | -0.0744
100 kPa, x1 = 0.2054 | -0.0763 | – | –
100 kPa, x1 = 0.2654 | – | – | -0.0854
100 kPa, x1 = 0.2665 | -0.0874 | -0.0911 | –
100 kPa, x1 = 0.3253 | – | – | -0.092
100 kPa, x1 = 0.3264 | -0.0938 | -0.0978 | –
100 kPa, x1 = 0.3839 | – | – | -0.0953
100 kPa, x1 = 0.3845 | -0.0975 | -0.101 | –
100 kPa, x1 = 0.4385 | – | – | -0.0962
100 kPa, x1 = 0.4399 | -0.0983 | -0.102 | –
100 kPa, x1 = 0.4916 | -0.0967 | -0.1 | –
100 kPa, x1 = 0.4924 | – | – | -0.094
100 kPa, x1 = 0.5427 | -0.0933 | -0.0963 | -0.0913
100 kPa, x1 = 0.591 | – | – | -0.0857
100 kPa, x1 = 0.5925 | -0.0886 | -0.0911 | –
100 kPa, x1 = 0.6393 | – | – | -0.0799
100 kPa, x1 = 0.6409 | -0.0822 | -0.0846 | –
100 kPa, x1 = 0.683 | – | -0.0777 | –
100 kPa, x1 = 0.6848 | – | – | -0.0727
100 kPa, x1 = 0.6874 | -0.0745 | – | –
100 kPa, x1 = 0.727 | – | -0.0695 | –
100 kPa, x1 = 0.7296 | – | – | -0.065
100 kPa, x1 = 0.7314 | -0.0665 | – | –
100 kPa, x1 = 0.7727 | -0.0592 | -0.0602 | –
100 kPa, x1 = 0.8108 | – | -0.0513 | –
100 kPa, x1 = 0.8157 | -0.0487 | – | –
100 kPa, x1 = 0.8553 | -0.0402 | -0.0402 | –
100 kPa, x1 = 0.8911 | -0.031 | -0.0309 | –
100 kPa, x1 = 0.9281 | -0.0203 | -0.0209 | –
100 kPa, x1 = 0.9663 | -0.00889 | -0.00985 | –
10000 kPa, x1 = 0.0699 | – | -0.037 | –
10000 kPa, x1 = 0.0721 | -0.0371 | – | –
10000 kPa, x1 = 0.1399 | -0.0613 | -0.0633 | –
10000 kPa, x1 = 0.2039 | -0.0767 | -0.0802 | –
10000 kPa, x1 = 0.2044 | – | – | -0.0752
10000 kPa, x1 = 0.265 | – | -0.0917 | –
10000 kPa, x1 = 0.2667 | – | – | -0.086
10000 kPa, x1 = 0.2678 | -0.0878 | – | –
10000 kPa, x1 = 0.3249 | – | -0.0989 | –
10000 kPa, x1 = 0.3267 | – | – | -0.0926
10000 kPa, x1 = 0.3279 | -0.0955 | – | –
10000 kPa, x1 = 0.3829 | -0.0988 | -0.102 | –
10000 kPa, x1 = 0.3835 | – | – | -0.0962
10000 kPa, x1 = 0.4381 | -0.0997 | -0.103 | -0.0965
10000 kPa, x1 = 0.4919 | – | – | -0.0945
10000 kPa, x1 = 0.4933 | -0.0979 | -0.101 | –
10000 kPa, x1 = 0.5421 | – | – | -0.0909
10000 kPa, x1 = 0.5443 | -0.0944 | -0.0972 | –
10000 kPa, x1 = 0.5902 | – | -0.0923 | –
10000 kPa, x1 = 0.5926 | – | – | -0.0858
10000 kPa, x1 = 0.5941 | -0.0891 | – | –
10000 kPa, x1 = 0.6383 | -0.0835 | -0.0856 | -0.0795
10000 kPa, x1 = 0.6845 | -0.0762 | -0.0782 | –
10000 kPa, x1 = 0.7283 | -0.0684 | -0.0701 | –
10000 kPa, x1 = 0.7739 | -0.0591 | -0.0605 | –
10000 kPa, x1 = 0.8118 | -0.0505 | -0.0517 | –
10000 kPa, x1 = 0.8511 | -0.0409 | -0.042 | –
10000 kPa, x1 = 0.8917 | -0.0305 | -0.0311 | –
10000 kPa, x1 = 0.9285 | -0.0202 | -0.021 | –
10000 kPa, x1 = 0.9665 | -0.00903 | -0.00989 | –

CN(C)CCO [2-(N,N-dimethylamino)ethanol] + CO
Conditions | excess molar enthalpy [kcal/mol]
298.2 K, 100 kPa, x1 = 0.0499 | -0.0602
298.2 K, 100 kPa, x1 = 0.099 | -0.108
298.2 K, 100 kPa, x1 = 0.1495 | -0.144
298.2 K, 100 kPa, x1 = 0.1981 | -0.172
298.2 K, 100 kPa, x1 = 0.2479 | -0.193
298.2 K, 100 kPa, x1 = 0.2982 | -0.207
298.2 K, 100 kPa, x1 = 0.3481 | -0.214
298.2 K, 100 kPa, x1 = 0.3968 | -0.217
298.2 K, 100 kPa, x1 = 0.4466 | -0.214
298.2 K, 100 kPa, x1 = 0.4972 | -0.207
298.2 K, 100 kPa, x1 = 0.5483 | -0.197
298.2 K, 100 kPa, x1 = 0.5992 | -0.183
298.2 K, 100 kPa, x1 = 0.6494 | -0.167
298.2 K, 100 kPa, x1 = 0.6981 | -0.149
298.2 K, 100 kPa, x1 = 0.7506 | -0.127
298.2 K, 100 kPa, x1 = 0.8007 | -0.105
298.2 K, 100 kPa, x1 = 0.8477 | -0.0821
298.2 K, 100 kPa, x1 = 0.8977 | -0.0564
298.2 K, 100 kPa, x1 = 0.9512 | -0.027
298.2 K, 10000 kPa, x1 = 0.05 | -0.0659
298.2 K, 10000 kPa, x1 = 0.0993 | -0.112
298.2 K, 10000 kPa, x1 = 0.1479 | -0.146
298.2 K, 10000 kPa, x1 = 0.1986 | -0.175
298.2 K, 10000 kPa, x1 = 0.2485 | -0.194
298.2 K, 10000 kPa, x1 = 0.2961 | -0.207
298.2 K, 10000 kPa, x1 = 0.3458 | -0.214
298.2 K, 10000 kPa, x1 = 0.3976 | -0.216
298.2 K, 10000 kPa, x1 = 0.4474 | -0.214
298.2 K, 10000 kPa, x1 = 0.4981 | -0.207
298.2 K, 10000 kPa, x1 = 0.5447 | -0.198
298.2 K, 10000 kPa, x1 = 0.5952 | -0.184
298.2 K, 10000 kPa, x1 = 0.645 | -0.168
298.2 K, 10000 kPa, x1 = 0.6988 | -0.148
298.2 K, 10000 kPa, x1 = 0.7452 | -0.129
298.2 K, 10000 kPa, x1 = 0.7948 | -0.108
298.2 K, 10000 kPa, x1 = 0.8481 | -0.0818
298.2 K, 10000 kPa, x1 = 0.898 | -0.0562
313.2 K, 100 kPa, x1 = 0.0499 | -0.062
313.2 K, 100 kPa, x1 = 0.099 | -0.109
313.2 K, 100 kPa, x1 = 0.1495 | -0.148
313.2 K, 100 kPa, x1 = 0.1981 | -0.177
313.2 K, 100 kPa, x1 = 0.2479 | -0.197
313.2 K, 100 kPa, x1 = 0.2982 | -0.21
313.2 K, 100 kPa, x1 = 0.3481 | -0.217
313.2 K, 100 kPa, x1 = 0.3968 | -0.219
313.2 K, 100 kPa, x1 = 0.4466 | -0.217
313.2 K, 100 kPa, x1 = 0.4972 | -0.211
313.2 K, 100 kPa, x1 = 0.5483 | -0.199
313.2 K, 100 kPa, x1 = 0.5992 | -0.187
313.2 K, 100 kPa, x1 = 0.6494 | -0.17
313.2 K, 100 kPa, x1 = 0.6981 | -0.151
313.2 K, 100 kPa, x1 = 0.7506 | -0.13
313.2 K, 100 kPa, x1 = 0.8007 | -0.106
313.2 K, 100 kPa, x1 = 0.8477 | -0.0831
313.2 K, 100 kPa, x1 = 0.8977 | -0.0566
313.2 K, 100 kPa, x1 = 0.9512 | -0.028
313.2 K, 10000 kPa, x1 = 0.0502 | -0.0624
313.2 K, 10000 kPa, x1 = 0.0996 | -0.111
313.2 K, 10000 kPa, x1 = 0.1484 | -0.148
313.2 K, 10000 kPa, x1 = 0.1992 | -0.177
313.2 K, 10000 kPa, x1 = 0.2491 | -0.198
313.2 K, 10000 kPa, x1 = 0.2968 | -0.211
313.2 K, 10000 kPa, x1 = 0.3465 | -0.219
313.2 K, 10000 kPa, x1 = 0.3983 | -0.222
313.2 K, 10000 kPa, x1 = 0.4482 | -0.219
313.2 K, 10000 kPa, x1 = 0.4989 | -0.213
313.2 K, 10000 kPa, x1 = 0.5455 | -0.203
313.2 K, 10000 kPa, x1 = 0.596 | -0.19
313.2 K, 10000 kPa, x1 = 0.6457 | -0.174
313.2 K, 10000 kPa, x1 = 0.6995 | -0.153
313.2 K, 10000 kPa, x1 = 0.7458 | -0.133
313.2 K, 10000 kPa, x1 = 0.7953 | -0.111
313.2 K, 10000 kPa, x1 = 0.8485 | -0.0847
313.2 K, 10000 kPa, x1 = 0.8983 | -0.0578
328.2 K, 100 kPa, x1 = 0.1479 | -0.141
328.2 K, 100 kPa, x1 = 0.1972 | -0.171
328.2 K, 100 kPa, x1 = 0.2469 | -0.192
328.2 K, 100 kPa, x1 = 0.2976 | -0.206
328.2 K, 100 kPa, x1 = 0.3469 | -0.214
328.2 K, 100 kPa, x1 = 0.3974 | -0.216
328.2 K, 100 kPa, x1 = 0.4466 | -0.214
328.2 K, 100 kPa, x1 = 0.4956 | -0.207
328.2 K, 100 kPa, x1 = 0.5465 | -0.197
328.2 K, 100 kPa, x1 = 0.5963 | -0.183
328.2 K, 100 kPa, x1 = 0.6473 | -0.167
328.2 K, 10000 kPa, x1 = 0.1487 | -0.142
328.2 K, 10000 kPa, x1 = 0.1983 | -0.171
328.2 K, 10000 kPa, x1 = 0.2481 | -0.194
328.2 K, 10000 kPa, x1 = 0.2973 | -0.207
328.2 K, 10000 kPa, x1 = 0.3465 | -0.216
328.2 K, 10000 kPa, x1 = 0.397 | -0.218
328.2 K, 10000 kPa, x1 = 0.446 | -0.217
328.2 K, 10000 kPa, x1 = 0.4972 | -0.21
328.2 K, 10000 kPa, x1 = 0.5455 | -0.201
328.2 K, 10000 kPa, x1 = 0.5979 | -0.187
328.2 K, 10000 kPa, x1 = 0.6457 | -0.172
328.2 K, 10000 kPa, x1 = 0.6973 | -0.153

— the NIST ThermoML archive (doi:10.1021/je800334m)
